Assay results: patent publication US6090787A, “Antithrombotic agents” (Eli Lilly and Company, priority 1999, dated 2000)
Square brackets hold non-standard residues; d marks the D form. Peptide text beside a SMILES is read from it. dPip = O=C(O)[C@H]1CCCCN1; Sar = CNCC(=O)O

Columns and labels:
[1] = target: T1, tissue plasminogen activator (t-PA) (Homo sapiens, UniProt P00750); assay: Fibrinolytic protease selectivity, Kass, t-PA chromogenic assay; format: biochemical; conditions: apparent association constant
T1 construct: purchased American Diagnostica, Greenwich, Conn
T1 sequence (P00750 36-562): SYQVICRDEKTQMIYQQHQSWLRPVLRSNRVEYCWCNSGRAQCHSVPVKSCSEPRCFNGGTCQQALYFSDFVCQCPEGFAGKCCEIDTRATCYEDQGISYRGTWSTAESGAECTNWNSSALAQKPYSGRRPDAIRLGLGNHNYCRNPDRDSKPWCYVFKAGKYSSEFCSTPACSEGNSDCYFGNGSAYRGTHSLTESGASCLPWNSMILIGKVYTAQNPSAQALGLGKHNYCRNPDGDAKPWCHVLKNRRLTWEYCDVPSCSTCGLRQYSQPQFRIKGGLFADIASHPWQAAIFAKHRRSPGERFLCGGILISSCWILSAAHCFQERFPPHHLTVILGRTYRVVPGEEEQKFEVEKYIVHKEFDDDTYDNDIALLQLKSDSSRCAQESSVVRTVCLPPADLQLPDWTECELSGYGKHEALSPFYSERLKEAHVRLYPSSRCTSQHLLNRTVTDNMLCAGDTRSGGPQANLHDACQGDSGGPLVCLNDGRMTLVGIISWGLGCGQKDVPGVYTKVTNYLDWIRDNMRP
Summary of the method: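 Carried out like the human thrombin procedure, with chromogenic substrates H-D-Ile-Pro-Arg-p-nitroanilide for t-PA (single chain nt-PA or mt-PA6) and H-D-Val-Leu-Lys-p-nitroanilide for human plasmin. Inhibition of amidase activity gives association constants.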

human plasma [2] = assay: Human plasma anticoagulation, activated partial thromboplastin time (APTT); conditions: concentration required to double the APTT, linear extrapolation
Summary of the method: (§1)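 Compounds added over a wide concentration range to citrated plasma on a coagulation instrument. PT: saline plus Thromboplastin-C; APTT: 120 s incubation with Actin reagent, then CaCl2 (0.02 M); TT: saline plus bovine thrombin (10 NIH units/mL). Concentration doubling clotting time estimated by linear extrapolation.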

human plasma [3] = assay: Human plasma anticoagulation, thrombin time (TT); conditions: concentration required to double the thrombin time, linear extrapolation
Summary of the method: as §1

Bovine trypsin = target: T2, Bovine trypsin (Bos taurus, UniProt P00760); assay: Serine protease selectivity, Kass, trypsin chromogenic assay; format: biochemical; conditions: apparent association constant
T2 construct: purchased Worthington Biochemicals, Freehold, N.J
T2 sequence (P00760 24-246): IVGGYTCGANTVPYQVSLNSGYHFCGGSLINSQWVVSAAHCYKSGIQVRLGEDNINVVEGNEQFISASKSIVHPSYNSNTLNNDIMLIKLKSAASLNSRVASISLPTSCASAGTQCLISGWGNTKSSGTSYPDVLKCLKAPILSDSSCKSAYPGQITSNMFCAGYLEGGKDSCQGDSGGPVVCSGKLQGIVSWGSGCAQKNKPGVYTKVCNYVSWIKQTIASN
Summary of the method: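 Run as the human thrombin chromogenic assay. Human factor Xa used N-Benzoyl-Ile-Glu-Gly-Arg-p-nitroanilide as substrate. Bovine trypsin used N-Benzoyl-Phe-Val-Arg-p-nitroanilide.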

human plasma [4] = assay: Human plasma anticoagulation, prothrombin time (PT); conditions: concentration required to double the PT, linear extrapolation
Summary of the method: as §1

Structure (SMILES): Cl.Cl.N=C(N)NCCC[C@@H](C=O)NC(=O)CN(CCc1ccccc1)C(=O)[C@H]1CCCCN1 [Example 8, D-homoprolyl-N-(2-phenylethyl)glycyl-L-argininal dihydrochloride]
- Enzyme Kass t-PA [1]: 0.009 L/mol × 10^6
- Human Plasma Anticoagulation 2 × Clotting time APTT (human plasma [2]): 6,600 ng/mL
- Human Plasma Anticoagulation 2 × Clotting time TT (human plasma [3]): 64 ng/mL
- Enzyme Kass Trypsin (Bovine trypsin): 2.7 L/mol × 10^6
- Human Plasma Anticoagulation 2 × Clotting time PT (human plasma [4]): 2,000 ng/mL

Structure (SMILES): CN(CC(=O)N[C@H](C=O)CCCNC(=N)N)C(=O)[C@H]1CCCCN1.Cl.Cl [Example 1, D-homoprolyl-N-methylglycyl-L-argininal dihydrochloride] (H-[dPip]-[Sar]-Arg-aldehyde)
- Enzyme Kass t-PA [1]: 0.0039 L/mol × 10^6
- Human Plasma Anticoagulation 2 × Clotting time APTT (human plasma [2]): 2,800 ng/mL
- Human Plasma Anticoagulation 2 × Clotting time TT (human plasma [3]): 160 ng/mL
- Enzyme Kass Trypsin (Bovine trypsin): 0.88 L/mol × 10^6
- Human Plasma Anticoagulation 2 × Clotting time PT (human plasma [4]): 4,800 ng/mL

Structure (SMILES): CC(C)CCN(CC(=O)N[C@H](C=O)CCCN=C(N)N)C(=O)[C@H]1CCCCN1.Cl.Cl [Example 6, D--hPro--N(isoamyl)Gly--ArgH.2HCl]
- Enzyme Kass t-PA [1]: 0.004 L/mol × 10^6
- Human Plasma Anticoagulation 2 × Clotting time APTT (human plasma [2]): 3,200 ng/mL
- Human Plasma Anticoagulation 2 × Clotting time TT (human plasma [3]): 170 ng/mL
- Enzyme Kass Trypsin (Bovine trypsin): 5.9 L/mol × 10^6
- Human Plasma Anticoagulation 2 × Clotting time PT (human plasma [4]): 2,600 ng/mL
